Measurements taken from article PMC8268581, “Identification of 3,4-Dihydro-2H,6H-pyrimido[1,2-c][1,3]benzothiazin-6-imine Derivatives as Novel Selective Inhibitors of Plasmodium falciparum Dihydroorotate Dehydrogenase” (International Journal of Molecular Sciences, 2021).

Columns and labels:
[1] = target: mammalian mitochondrial complexes I–III (Bos taurus, UniProt P00157+P03887+P17694+P42026); experiment: NADH-cytochrome c reductase (complexes I–III) activity assay; assay type: biochemical; settings: bovine heart mitochondria, range tested 0.0007 to 22.7 µM; read-out: IC50 Mammalian Mitochondrial CI–III
Protocol: Bovine heart mitochondria were prepared as previously described. The NADH-cytochrome c reductase (complexes I–III) and succinate-cytochrome c reductase (complexes II–III) activities were assayed in 384-well plates following an established protocol with small modifications. Complex I–III activity was assayed in a reaction mix containing 50 mM phosphate buffer pH 7.4, 2 mM KCN, 200 µM cytochrome c (cytochrome c from horse heart, Nacalai tesque), and 15 µg/mL mitochondria. Plates containing 1 µL serial dilutions of PfDHODH inhibitors were prepared and mixed with 38 µL of the reaction mix, as described above. The reaction was started by the addition of 5 µL of 2.6 mM NADH, and the assay was performed as described for PfDHODH, but at 550 nm and with 15 min of incubation. Complex II–III activity was assayed similarly to complex I–III activity but with 100 µM cytochrome c and 25 µg/mL mitochondria, and the reaction was started by 10 mM succinate. For both assays, DMSO and 5 µM ascochlorin were used as negative and positive controls, respectively. Assays were performed in triplicate.

P. falciparum 3D7 = experiment: In vitro antimalarial assay (PfLDH/diaphorase); assay type: cell-based; settings: Plasmodium falciparum, growth inhibition, 72 h, 0.0003 to 10 µM, read-out: EC50 Pf3D7
Protocol: This assay was conducted using human red blood cells (RBC) following the guidelines of the ethics committee of Nagasaki University (permission no. 19). Human RBC was obtained from the Japanese Red Cross Society. The P. falciparum 3D7 strain was cultured in 2% hematocrit type O human RBC in RPMI-1640 medium (Gibco) supplemented with 23.8 mM sodium bicarbonate (Wako), 50 mg/L hypoxanthine (Wako), 25 mg/L gentamycin (Sigma), and 0.5% (w/v) AlbuMAX®® II (Gibco) under a 5% O2, 5% CO2, and 90% N2 atmosphere at 37 °C. Parasites were synchronized with 5% (w/v) D-sorbitol (Wako).
(§1) Synchronized ring-stage parasites at 0.3% parasitemia and 2% hematocrit were cultured in a 384-well plate at 25 µL with test compounds at a final concentration in the range of 0.0003 to 10 µM with a fixed DMSO concentration of 0.4% (v/v). Parasite growth was monitored by the diaphorase-coupled P. falciparum lactate dehydrogenase (PfLDH) assay, as previously described. After 72 h, 70 µL of the assay solution (150 mM lithium L-lactate (Wako), 0.05 mg/mL 3-acetylpyridine adenine dinucleotide (Oriental Yeast Co., Ltd., Tokyo, Japan), 0.2 mg/mL nitro blue tetrazolium (Wako), 1 unit/mL diaphorase, and 100 mM Tris-HCl pH 8.0) were mixed with the parasite culture and incubated at room temperature for 40 min, and the generated nitro blue formazan was measured at 650 nm using a SpectraMax®® Paradigm®® Multi-Mode Microplate Reader. […] The EC50 was calculated using GraphPad Prism 8.0 software from the mean of quadruplets values.

[2] = system: P. falciparum 3D7 strain expressing the cytosolic yeast DHODH (3D7-yDHODH); experiment: Confirmation assay against transgenic parasite 3D7-yDHODH; assay type: cell-based, Plasmodium falciparum; settings: for activity at 10 µM: 72 h, relative parasite growth at 10 µM compound, read-out: Growth at 10 µM (%) Pf3D7-yDHODH; for susceptibility of Pf3D7-yDHODH parasite (in words): relative parasite growth at 10 µM, compared with wild-type 3D7
Protocol: as §1
The P. falciparum 3D7 strain expressing the cytosolic yeast DHODH (3D7-yDHODH) was prepared as follows. pHHyDHODH-GFP plasmid (Kerafast, Boston, MA, USA) was transfected to the P. falciparum 3D7 strain following the established transfection method. Briefly, 50 µg of plasmid dissolved in cytomix solution (120 mM KCl, 0.15 mM CaCl2, 10 mM K2HPO4/KH2PO4 pH 7.6, 25 mM HEPES-KOH pH 7.6, 2 mM ethylene glycol-bis(β-aminoethyl ether)-N,N,N′,N′-tetraacetic acid (EGTA, Dojindo), and 5 mM magnesium chloride (Wako)) was transfected into the red blood cells by the Gene Pulser Xcell (Bio-Rad). Percoll–sorbitol synchronized parasites were mixed with red blood cells containing plasmid and maintained under 5 nM WR99210 for 2 weeks. The growth of resistant parasites against DSM265 and atovaquone, as PfDHODH and complex III inhibitors respectively, was confirmed by PfLDH/diaphorase assay. A total of 10 µM PfDHODH inhibitors were tested against wild-type 3D7 and 3D7-yDHODH following the method described above in triplicate. The significance of difference between the inhibition of the two parasite strains was evaluated by Student’s t-test (Figure S4).

[3] = Cytotoxicity assay, HDF (Cell Counting Kit-8); assay type: cell-based; settings: human dermal fibroblast (HDF) cells, normal human dermal fibroblasts
Protocol: (§2) Human dermal fibroblast cells (HDF, Zenbio, Inc., Durham, NC, USA) were cultured in Dulbecco’s Modified Eagle Medium/Nutrient Mixture F-12 medium (DMEM/F12, Gibco), human pancreatic carcinoma cells (PANC-1, DS Pharma Biomedical, Co., Ltd.) were cultured in DMEM (Gibco), and human colorectal adenocarcinoma cells (DLD-1, Taiho Pharmaceutical Company) were cultured in RPMI-1640 medium (FUJIFILM Wako Pure Chemicals). The culture mediums were supplemented with 10% (v/v) heat-inactivated fetal bovine serum (Gibco) and the cells were maintained at 37 °C under 5% CO2.
(§3) HDF, PANC-1, and DLD-1 were seeded at 2.5 × 10^4 cells/well on a 96-well plate and incubated at 37 °C under 5% CO2 overnight. The cells were then washed with PBS and the medium was replaced with 99 µL of fresh media. Then, 1 µL of the compounds or DMSO was added to the respective wells. As controls, wells containing 1% (v/v) DMSO in column 1 and wells containing only the culture medium in column 12 were used as the negative and positive controls, respectively. After 48 h of incubation, the cells were washed with PBS, and 99 µL of fresh media was replaced, followed by the addition of 10 µL of Cell Counting Kit-8 (Dojindo) to each well. After 3 h of incubation, the absorbance was measured at 450 nm using a SpectraMax®® Paradigm®® Multi-Mode microplate Reader. The calculation of cell viability in the test well was based on the absorbance of control wells according to the manufacturer’s protocol. The mean of quadruplet values was used to calculate the CC50 using GraphPad Prism 8.0 software.

[4] = Cytotoxicity assay, PANC-1 (Cell Counting Kit-8); assay type: cell-based; settings: PANC-1 human pancreatic carcinoma cells
Protocol: as §2, §3

| SMILES | IC50 [1] [µM] | EC50 (P. falciparum 3D7) [µM] | activity at 10 µM [2] [%] | EC50 at 48 h [3] [µM] | EC50 at 48 h [4] [µM] | susceptibility of Pf3D7-yDHODH parasite (in words) [2] |
| --- | --- | --- | --- | --- | --- | --- |
| N=C1Sc2cc(-c3ccc4ccccc4c3)ccc2C2=NCCCN12 [Compound 1] | > 22.7 | 0.43 ± 0.18 | -0.62 ± 0.07 | > 10 | > 10 |  |
| N=C1Sc2cc(-c3ccc4c(c3)OCO4)ccc2C2=NCCCN12 [Compound 3] | > 22.7 | 1.16 ± 0.02 | -0.23 ± 0.01 | > 10 | > 10 |  |
| N=C1Sc2cc(-c3ccc4c(c3)OCCO4)ccc2C2=NCCCN12 [Compound 4] | > 22.7 | 1.07 ± 0.05 | 24 ± 5.76 | > 10 | > 10 |  |
| N=C1Sc2cc(-c3ccc4cnccc4c3)ccc2C2=NCCCN12 [Compound 5] | > 22.7 | 1.13 ± 0.05 | 26 ± 8.27 | > 10 | > 10 |  |
| N=C1Sc2cc(-c3ccc4c(C(=O)OC(F)(F)F)c[nH]c4c3)ccc2C2=NCCCN12 [Compound 6] | > 22.7 | 0.37 ± 0.05 | 104.4 ± 0.11 | > 10 | > 10 | reduced susceptibility |
| N=C1Sc2cc(-c3cc4ccccc4o3)ccc2C2=NCCCN12 [Compound 7] | > 22.7 | 0.34 ± 0.01 | 36.2 ± 1.01 | > 10 | > 10 |  |
| N=C1Sc2cc(/C=C/c3ccccc3)ccc2C2=NCCCN12 [Compound 8] | > 22.7 | 0.63 ± 0.25 | 0.12 ± 0.21 | > 10 | > 10 |  |
| CC(C)(C)N=C1Sc2cc(-c3cc4ccccc4s3)ccc2C2=NCCCN12 [Compound 10] | > 22.7 | 2.77 ± 0.28 | -0.48 ± 0.07 | > 10 | > 10 |  |
| N=C1Sc2cc(-c3ccccc3)ccc2C2=NCCCN12 [Compound 12] | > 22.7 | 1.15 ± 0.07 | -0.22 ± 0.12 | > 10 | > 10 |  |
| COC(=O)c1ccc(-c2ccc3c(c2)SC(=N)N2CCCN=C32)cc1 [Compound 13] | > 22.7 | 1.06 ± 0.01 | 70.5 ± 0.73 | > 10 | > 10 | reduced susceptibility |
| N#Cc1ccc(-c2ccc3c(c2)SC(=N)N2CCCN=C32)cc1 [Compound 14] | > 22.7 | 1.21 ± 0.04 | 105 ± 0.47 | > 10 | > 10 | reduced susceptibility |
| N=C1Sc2cc(-c3ccc(C(F)(F)F)cc3)ccc2C2=NCCCN12 [Compound 15] | > 22.7 | 1 ± 0.05 | -0.38 ± 0.17 | > 10 | > 10 |  |
| CSc1ccc(-c2ccc3c(c2)SC(=N)N2CCCN=C32)cc1 [Compound 17] | > 22.7 | 1.62 ± 0.56 | -0.5 ± 0.01 | > 10 | > 10 |  |
| N=C1Sc2cc(-c3ccc(OC(F)(F)F)cc3)ccc2C2=NCCCN12 [Compound 18] | > 22.7 | 0.37 ± 0.13 | 2.54 ± 0.42 | > 10 | > 10 |  |
| N=C1Sc2cc(-c3ccc(C(=O)c4ccccc4)cc3)ccc2C2=NCCCN12 [Compound 19] | > 22.7 | 0.51 ± 0.14 | 68.6 ± 0.43 | > 10 | > 10 | reduced susceptibility |
| C#CCOCc1ccc(C(=O)c2ccc(-c3ccc4c(c3)SC(=N)N3CCCN=C43)cc2)cc1 [Compound 20] | > 22.7 | 0.38 ± 0.08 | 0.45 ± 0.74 | > 10 | > 10 |  |
| N=C1Sc2cc(-c3cccc([N+](=O)[O-])c3)ccc2C2=NCCCN12 [Compound 21] | > 22.7 | 0.85 ± 0.12 | 103 ± 0.67 | > 10 | > 10 | reduced susceptibility |
| CC(C)Oc1cccc(-c2ccc3c(c2)SC(=N)N2CCCN=C32)c1 [Compound 22] | > 22.7 | 0.9 ± 0.44 | -0.06 ± 0.24 | > 10 | > 10 |  |
| CCc1cccc(-c2ccc3c(c2)SC(=N)N2CCCN=C32)c1 [Compound 25] | > 22.7 | 1.77 ± 0.83 | 0.01 ± 0.15 | > 10 | > 10 |  |
| N=C1Sc2cc(-c3ccccc3-c3ccccc3)ccc2C2=NCCCN12 [Compound 27] | > 22.7 | 0.39 ± 0.05 | 0.25 ± 0.04 | > 10 | > 10 |  |
| c1ccc(-c2ccc3c(c2)SN2CCCN=C32)cc1 [Compound 30] | > 22.7 | 9.67 ± 5.09 | 63.6 ± 5.87 | > 10 | > 10 | reduced susceptibility |
| c1ccc2c(-c3ccc4c(c3)SN3CCCN=C43)cccc2c1 [Compound 31] | > 22.7 | 0.33 ± 0.01 | 0 | > 10 | > 10 |  |
| c1cc2c(cc1-c1ccc3c(c1)SN1CCCN=C31)OCO2 [Compound 32] | > 22.7 | 1.85 ± 0.53 | 0.11 ± 0.03 | > 10 | > 10 |  |
| c1ccc(-c2ccc3c(c2)C2=NCCCN2S3)cc1 [Compound 36] | > 22.7 | 4.16 ± 0.09 | 32.5 ± 10.1 | 8.38 | > 10 |  |
| COC(=O)c1ccc(-c2ccc3c(c2)SN2CCCN=C32)cc1 [Compound 37] | > 22.7 | 2.78 ± 0.27 | -0.18 ± 0.05 | 8.43 | > 10 |  |
